This note sets out measurements from ChEMBL document CHEMBL3352180, “From chemical tools to clinical medicines: nonimmunosuppressive cyclophilin inhibitors derived from the cyclosporin and sanglifehrin scaffolds” (J Med Chem, 2014).

SMILES strings stand for the structures. pEC50, pKd: −log10 of the molar value. Where only a bound is given, the exact number is not on record here.

Assay [1] has as its system Hepatitis C virus. As to the kind of experiment: Antiviral activity against HCV assessed as inhibition of viral replication at 1 uM by replicon based assay. Format: functional, Hepacivirus hominis. On the technique in general: In antiviral work, replicon cells carry a viral genome segment that copies itself.
Assay [2] concerns the target Peptidyl-prolyl cis-trans isomerase F, mitochondrial (Homo sapiens, UniProt P30405).
Description: Binding affinity to cyclophilin D (unknown origin)
Assay [3] deals with Peptidyl-prolyl cis-trans isomerase A (Homo sapiens, UniProt P62937).
Peptidyl-prolyl cis-trans isomerase A, sequence (P62937 whole entry): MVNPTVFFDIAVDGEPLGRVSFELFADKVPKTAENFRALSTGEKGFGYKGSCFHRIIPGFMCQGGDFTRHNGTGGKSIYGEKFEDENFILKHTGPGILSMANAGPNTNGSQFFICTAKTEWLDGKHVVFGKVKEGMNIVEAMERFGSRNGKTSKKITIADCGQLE
Description: Binding affinity to cyclophilin A (unknown origin)
In assay [4] the test system is Hepatitis C virus. As to the kind of experiment: microbe, parasite or virus in culture.
Description: Antiviral activity against HCV by replicon based assay
For the next assay, the species on record is Homo sapiens. As to the kind of experiment: Inhibition of Pgp (unknown origin) assessed as reduction in pump efflux activity.
The test system of another assay is Lymphocyte. As to the kind of experiment: cells.

Peptidyl-prolyl cis-trans isomerase F, mitochondrial, sequence (P30405 whole entry): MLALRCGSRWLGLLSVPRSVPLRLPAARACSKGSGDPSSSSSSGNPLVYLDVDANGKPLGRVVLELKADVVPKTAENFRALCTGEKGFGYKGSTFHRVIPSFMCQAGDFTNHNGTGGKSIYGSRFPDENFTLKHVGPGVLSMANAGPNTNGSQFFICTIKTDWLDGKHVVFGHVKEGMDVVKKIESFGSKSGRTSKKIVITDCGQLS
Description for Lymphocyte: Immunosuppressive activity in lymphocytes (unknown origin) by mixed lymphocyte reaction assay

Consider `CC(C)[C@@H]1OC(=O)[C@]2(/C=C/c3ccc4ccc(nc4c3)[C@@H](C)OC(=O)[C@@H]3CCCN(N3)C(=O)[C@H](C)NC1=O)CC[C@H](O)CC2`, for which, in the assay on Hepatitis C virus [1], the inhibition at 1 µM was 99%.
On to `C/C=C/C[C@@H](C)[C@@H](O)[C@H]1C(=O)N[C@@H](CC)C(=O)N(C)[C@@H](C)C(=O)N(C)[C@@H](CC(C)C)C(=O)N(CC=C(C)C)[C@@H](C(C)C)C(=O)N(C)[C@@H](CC(C)C)C(=O)N[C@@H](C)C(=O)N[C@H](C)C(=O)N(C)[C@@H](CC(C)C)C(=O)N(C)[C@@H](CC(C)C)C(=O)N(C)[C@@H](C(C)C)C(=O)N1C`, for which the pKd in assay [2] and in assay [3] was greater than 7.22 in each case. Besides, the pEC50 in the assay on Hepatitis C virus [4] is greater than 6.70.
On to `C/C=C/C[C@@H](C)[C@@H](O)[C@H]1C(=O)N[C@@H](CC)C(=O)N(C)[C@H](SCCN(C)C)C(=O)N(C)[C@@H](CC(C)(C)O)C(=O)N[C@@H](C(C)C)C(=O)N(C)[C@@H](CC(C)C)C(=O)N[C@@H](C)C(=O)N[C@H](C)C(=O)N(C)[C@@H](CC(C)C)C(=O)N(C)[C@@H](CC(C)C)C(=O)N(C)[C@@H](C(C)C)C(=O)N1C`, for which the INH in the assay listed under Homo sapiens was found to be 15 µM.
Turning to `CC(C)[C@@H]1NC(=O)C([C@H](C)O)/C=C/c2ccc3ccc(nc3c2)[C@@H](C)OC(=O)[C@@H]2CCCN(N2)C(=O)[C@H](C)NC1=O` (some centres not stated), in the assay on Hepatitis C virus [1], the inhibition at 1 µM came out at 99%.
As for `C/C=C/C[C@@H](C)[C@@H](O)[C@H]1C(=O)N[C@@H](CC)C(=O)N(C)[C@@H](SCCCN2CCOCC2)C(=O)N(C)[C@@H](CC(C)C)C(=O)N[C@@H](C(C)C)C(=O)N(C)[C@@H](CC(C)C)C(=O)N[C@@H](C)C(=O)N[C@H](C)C(=O)N(C)[C@@H](CC(C)C)C(=O)N(C)[C@@H](CC(C)C)C(=O)N(C)[C@@H](C(C)C)C(=O)N1C`, in the assay with Lymphocyte, the pEC50 was 5.52.

A word on the inhibition: it is how much of the control response was suppressed. The pKd is the negative decadic logarithm of the Kd, by convention in mol/L. Low values mean a high Kd, high ones a low Kd. The pEC50 is the negative decadic logarithm of the EC50, by convention in mol/L. Low values mean a large EC50, high ones a small EC50.
